Values of other authors, collected in patent publication US20120277693A1, “METHOD AND APPARATUS FOR IMPROVING THE APPEARANCE OF NAILS AFFECTED BY ONYCHOMYCOSIS THROUGH THE TOPICAL APPLICATION OF AN AQUEOUS SOLUTION CONTAINING BORIC ACID AND CAMPHOR OR OTHER TERPENES” (priority 2009, published 2012).

Assays:
[1] = in boiling water; believed to be approximately; also printed as 280 g/L or 4.53 mole/L
[2] = test system: fungal nail infection; conditions: topical lacquer painted daily on infected nails

boric acid concentration, supersaturated [1]	SMILES	patients in whom the treatment is effective [2]
approximately 28%	OB(O)O [boric acid]	–
–	Cc1cc(C2CCCCC2)n(O)c(=O)c1 [ciclopirox]	less than 10%
